Structures can show the parent of a compound that is named as a salt.
System: Subjects with Refractory Solid Tumors
Experiment: Phase I clinical trial, open-label, dose-escalating, multiple-dose, weekly intravenous administration
Type: in vivo, human
Method: An open-label, dose-escalating, multiple-dose study to define the safety, tolerability and phamacokinetics of weekly intravenous administration of (4-Methoxy-phenyl)-methyl-(2-methyl-quinazolin-4-yl)-amine hydrochloride was performed. A dosing schedule (each 4 week cycle) was performed for (4-Methoxy-phenyl)-methyl-(2-methyl-quinazolin-4-yl)-amine hydrochloride weekly for 3 weeks with no infusion on the fourth week of each cycle. Subjects with refractory solid tumors were enrolled. During Cycle 1, subjects were hospitalized during each infusion of (4-Methoxy-phenyl)-methyl-(2-methyl-quinazolin-4-yl)-amine hydrochloride and remained for observation and safety evaluation for approximately 24 hours following the end of the infusion. All subject had continuous telemetry for 2 hours prior to infusion, for 1-2 hour infusion and for 3 hours after the end of the infusion. Any clinically significant electrocardiographic (ECG) wave form abnormality was recorded and prolongation of the monitoring period extended at the discretion of the principal investigator.
Electrocardiograms were obtrained prior to starting the infusion and within 30 minutes of the end of infusion for each infusino of the first cycle. Electrocardiograms on Day 1 were obtained in triplicate 5 minutes apart.
Neurocognitive assessments were made by administration of the Mini-Mental State Examination (MMSE), the Hopkins Verbal Learning and timed Grooved Pegboard tests before administration of the intravenous infusion and approximately 24 hours after the infusion at each weekly administration of the first cycle.
On days 1, 8, and 15 of each cycle, vital signs were obtained prior to the first dose, at 15, 30, and 60 minutes after the initiation of the infusion, and at 0.5, 1, 1.5, 2, and 4 hours after the end of the intravenous infusion. Vital signs at all time points beyond the start of the intravenous infusion included heart rate, blood pressure and respirations. Temperature was measured at the end of the infusion and 4 hours later.
Individual subjects were allowed to continue on repeated weekly ×3 administrations every 28 days with no dose increase provided there was no unacceptable toxicity or disease progression.
Tumor response was evaluated by response evaluation criteria in solid tumors
(RECIST) criteria. To prevent sever hypersensitivity reactions due to Cremophor® EL, subjects were premedicated with oral dexamethasone (20 mg) administered approximately 12 and 6 hours before the intravenous infusion with (4-Methoxy-phenyl)-methyl-(2-methyl-quinazolin-4-yl)-amine hydrochloride, diphenhydramine (50 mg) or its equivalent administered intravenously 30-60 minutes before (4-Methoxy-phenyl)-methyl-(2-methyl-quinazolin-4-yl)-amine hydrochloride, and cimetidine (300 mg) or ranitidine (50 mg) administered intravenously 30-60 minutes before (4-Methoxy-phenyl)-methyl-(2-methyl-quinazolin-4-yl)-amine hydrochloride.

[1] = at the administered doses (0.3-4.5 mg/m^2), weekly i.v.

Structure (SMILES): COc1ccc(N(C)c2nc(C)nc3ccccc23)cc1 [(4-Methoxy-phenyl)-methyl-(2-methyl-quinazolin-4-yl)-amine hydrochloride]
- cytotoxicity peripherally [1]: no evidence from the results of the clinical trials of cytotoxicity peripherally
- effect on laboratory parameters (neutrophils, platelets, hemoglobin) [1]: no apparent effect
- safety and tolerability (human subjects at selected dosages, summary of Phase 1 studies): safe and well tolerated
- disease progression (tumor response by RECIST criteria) (one patient in Cohort 10 (3.3 mg/m^2) with NSCLC that had metastasized to the CNS, weekly i.v. for 3 weeks of each 4 week cycle): not shown to have disease progression
- dose limiting toxicity (particularly in Cohorts 8 and 9 (3.9 and 4.5 mg/m^2)): vascular in nature, manifested by an acute coronary syndrome
- intratumor bleeding (weekly i.v., human subjects): incidences of intratumor bleeding
- optimal dosage derived from the trials (weekly i.v., hydrochloride salt basis): ≤ 3.3 mg/m^2
- safety and tolerability (within dosage range 3.3 mg/m^2 or lower): safe and tolerated

— US20100261739A1, “Method of Treating Non-Small Cell Lung Cancer” (Myriad Pharmaceuticals, Inc., priority 2007, published 2010)
